The record followed here is patent US20120107854A1, “REAGENT FOR MEASUREMENT OF CHOLINESTERASE ACTIVITY” (NATIONAL INSTITUTE OF RADIOLOGICAL SCIENCES, priority 2009, published 2012).

Series [1] addresses purified human acetylcholinesterase (Homo sapiens, UniProt P22303). It counts as biochemical. The settings on record: for hydrolysis rate with Acetylcholinesterase (change in absorbance per minute): phosphate buffer 0.1 M pH 7.4, 0.1% Tween 20, absorbance at 412 nm, measured three times, average ± standard deviation; for specificity for acetylcholinesterase: acetylcholinesterase versus butyrylcholinesterase hydrolysis; for reaction order of the hydrolysis rate (time dependence): at the substrate concentration, change with time showed good linearity; for reaction order of the hydrolysis rate (time dependence) / change in absorbance at 412 nm with time: FIG. 1; for substrate quality for acetylcholinesterase: hydrolysis rate lower than acetyl thiocholine and acetyl-δ methyl-thiocholine; for change in absorbance at 412 nm with time: in 120 minutes, acetylcholinesterase. The protocol:
(§1) To investigate the hydrolysis rate and specificity of each of (1a) and (2a), the hydrolysis rate in a solution of each of purified human acetylcholinesterase and purified human butyrylcholinesterase was measured by the Ellman method, and was compared with those of acetyl thiocholine and acetyl-[…]. To 3 ml of a solution of each enzyme whose concentration was adjusted with a phosphate buffer (0.1 M, pH 7.4) containing 0.1% of Tween 20, 0.1 ml of a solution (5 mM) of 5,5′-dithio-bis(2-nitrobenzoic acid) was added. To these mixtures, the substrates were respectively added in an amount of 0.02 ml (75 mM), and the absorbance (mAbs) at a wavelength of 412 nm was measured.
(§2) The values in the Table represent the changes in absorbance per minute measured three times in the form of average value±standard deviation.
The values represent the absorbance (Abs) measured three times in the form of average value±standard deviation.

Series [2] concerns the target purified human butyrylcholinesterase (Homo sapiens, UniProt P06276). Description: Hydrolysis rate with purified human butyrylcholinesterase by the Ellman method. It counts as biochemical. To be noted: for hydrolysis rate with butyrylcholinesterase compared with spontaneous hydrolysis in the buffer solution: comparison of Table 1 values; for hydrolysis rate with Butyrylcholinesterase (change in absorbance per minute): phosphate buffer 0.1 M pH 7.4, 0.1% Tween 20, absorbance at 412 nm, measured three times, average ± standard deviation. The protocol:
as §1, §2
Background: In Ellman's method for cholinesterases, released thiocholine reacts with DTNB.

A short description of series [3]: Spontaneous hydrolysis rate in the buffer solution (Ellman method). The settings on record: buffer solution without enzyme; absorbance at 412 nm; measured three times, average ± standard deviation. In kind it is physicochemical.

Sequence of purified human acetylcholinesterase (P22303 32-614): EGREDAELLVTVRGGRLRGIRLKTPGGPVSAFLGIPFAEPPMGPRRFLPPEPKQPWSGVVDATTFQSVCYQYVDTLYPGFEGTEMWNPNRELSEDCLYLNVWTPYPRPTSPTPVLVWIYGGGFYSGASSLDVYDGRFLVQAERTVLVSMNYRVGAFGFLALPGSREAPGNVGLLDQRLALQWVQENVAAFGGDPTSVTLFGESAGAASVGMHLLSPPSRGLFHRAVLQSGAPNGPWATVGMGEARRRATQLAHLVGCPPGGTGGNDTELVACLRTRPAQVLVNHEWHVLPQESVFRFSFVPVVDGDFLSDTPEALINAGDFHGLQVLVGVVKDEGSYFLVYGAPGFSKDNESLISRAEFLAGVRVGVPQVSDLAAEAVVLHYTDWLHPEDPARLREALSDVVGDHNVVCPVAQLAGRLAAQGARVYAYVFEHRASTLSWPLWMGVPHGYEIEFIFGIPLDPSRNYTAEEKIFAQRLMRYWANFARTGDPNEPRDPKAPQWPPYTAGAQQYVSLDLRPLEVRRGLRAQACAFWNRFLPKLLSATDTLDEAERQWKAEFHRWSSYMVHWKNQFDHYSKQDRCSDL
Sequence of purified human butyrylcholinesterase (P06276 29-602): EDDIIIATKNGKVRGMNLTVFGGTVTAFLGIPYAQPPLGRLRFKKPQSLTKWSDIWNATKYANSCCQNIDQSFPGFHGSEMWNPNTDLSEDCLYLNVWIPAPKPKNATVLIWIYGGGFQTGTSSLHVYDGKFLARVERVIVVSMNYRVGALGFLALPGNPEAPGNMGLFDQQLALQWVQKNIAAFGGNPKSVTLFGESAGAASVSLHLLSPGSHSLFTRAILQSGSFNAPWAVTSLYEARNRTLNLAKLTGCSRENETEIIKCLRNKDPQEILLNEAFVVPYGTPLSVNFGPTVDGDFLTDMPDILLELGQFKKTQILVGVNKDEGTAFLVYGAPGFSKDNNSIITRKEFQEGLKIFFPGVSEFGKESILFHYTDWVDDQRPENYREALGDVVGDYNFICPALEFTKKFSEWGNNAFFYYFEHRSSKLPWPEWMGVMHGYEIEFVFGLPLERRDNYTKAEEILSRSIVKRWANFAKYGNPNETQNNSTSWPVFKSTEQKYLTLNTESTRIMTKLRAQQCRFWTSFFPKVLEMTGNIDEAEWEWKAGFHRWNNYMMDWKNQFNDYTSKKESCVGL

In the case of `CC(=O)SC(C)C[N+](C)(C)C` (stereo not drawn) [Acetyl-β methyl-thiocholine, reference compound], the “hydrolysis rate with Acetylcholinesterase (change in absorbance per minute)” value in series [1] is on record as 29 ± 0.24 ΔmAbs/minute. In series [2], the “hydrolysis rate with butyrylcholinesterase compared with spontaneous hydrolysis in the buffer solution” value is “significantly higher” and the “hydrolysis rate with Butyrylcholinesterase (change in absorbance per minute)” value is 7.1 ± 0.22 ΔmAbs/minute. Besides, the “spontaneous hydrolysis rate (change in absorbance per minute)” value in series [3] is 0.48 ± 0.020 ΔmAbs/minute.

Turning to `CC(=O)SCC1CCN(C)CC1` [Compound (1a), 1-methylpiperidin-4-ylmethyl acetyl sulfide], in series [1], the specificity for acetylcholinesterase entry is “extremely highly specific”, the “reaction order of the hydrolysis rate (time dependence)” value was “consistent with the zero-order reaction”, the “substrate quality for acetylcholinesterase” value is listed as “good substrates for acetylcholinesterase” and the “change in absorbance at 412 nm with time” value is reported as “approximately 0.4 Abs”. In addition, the “hydrolysis rate with Acetylcholinesterase (change in absorbance per minute)” value in series [1] is listed as 3.7 ± 0.098 ΔmAbs/minute. Besides, in series [2], the “hydrolysis rate with butyrylcholinesterase compared with spontaneous hydrolysis in the buffer solution” value is recorded as “did not show any significant difference” and the “hydrolysis rate with Butyrylcholinesterase (change in absorbance per minute)” value is 0.47 ± 0.026 ΔmAbs/minute. For the same compound, the “spontaneous hydrolysis rate (change in absorbance per minute)” value in series [3] is listed as 0.47 ± 0.0096 ΔmAbs/minute.

As for `CC(=O)SCC1CC[N+](C)(C)CC1` [Compound (2a), 1,1-dimethylpiperidin-4-ylmethyl acetyl sulfide], in series [1], the specificity for acetylcholinesterase entry is “extremely highly specific”, the “reaction order of the hydrolysis rate (time dependence)” value is on record as “consistent with the zero-order reaction”, the “substrate quality for acetylcholinesterase” value is given as “good substrates for acetylcholinesterase” and the “change in absorbance at 412 nm with time” value is listed as “approximately 0.4 Abs”. For the same compound, the “hydrolysis rate with Acetylcholinesterase (change in absorbance per minute)” value in series [1] is reported as 3.1 ± 0.15 ΔmAbs/minute. Besides, in series [2], the “hydrolysis rate with butyrylcholinesterase compared with spontaneous hydrolysis in the buffer solution” value is “did not show any significant difference” and the “hydrolysis rate with Butyrylcholinesterase (change in absorbance per minute)” value was 0.15 ± 0.0077 ΔmAbs/minute. In addition, the “spontaneous hydrolysis rate (change in absorbance per minute)” value in series [3] was 0.13 ± 0.027 ΔmAbs/minute.
